Experimental data: ChEMBL document CHEMBL5523684, “Development of a tetrahydroindazolone-based HDAC6 inhibitor with in-vivo anti-arthritic activity” (Bioorg Med Chem, 2024)
The source made the active and inactive calls. The rule behind the calls is not given here.

Key:
[1] = target: T1, Protein deacetylase HDAC6 (Homo sapiens, UniProt Q9UBN7); assay: Inhibition of N-terminal GST-tagged human recombinant HDAC6 expressed in Spodoptera frugiperda incubated for 60 mins by fluorescence based analysis
T1 sequence (Q9UBN7 whole entry): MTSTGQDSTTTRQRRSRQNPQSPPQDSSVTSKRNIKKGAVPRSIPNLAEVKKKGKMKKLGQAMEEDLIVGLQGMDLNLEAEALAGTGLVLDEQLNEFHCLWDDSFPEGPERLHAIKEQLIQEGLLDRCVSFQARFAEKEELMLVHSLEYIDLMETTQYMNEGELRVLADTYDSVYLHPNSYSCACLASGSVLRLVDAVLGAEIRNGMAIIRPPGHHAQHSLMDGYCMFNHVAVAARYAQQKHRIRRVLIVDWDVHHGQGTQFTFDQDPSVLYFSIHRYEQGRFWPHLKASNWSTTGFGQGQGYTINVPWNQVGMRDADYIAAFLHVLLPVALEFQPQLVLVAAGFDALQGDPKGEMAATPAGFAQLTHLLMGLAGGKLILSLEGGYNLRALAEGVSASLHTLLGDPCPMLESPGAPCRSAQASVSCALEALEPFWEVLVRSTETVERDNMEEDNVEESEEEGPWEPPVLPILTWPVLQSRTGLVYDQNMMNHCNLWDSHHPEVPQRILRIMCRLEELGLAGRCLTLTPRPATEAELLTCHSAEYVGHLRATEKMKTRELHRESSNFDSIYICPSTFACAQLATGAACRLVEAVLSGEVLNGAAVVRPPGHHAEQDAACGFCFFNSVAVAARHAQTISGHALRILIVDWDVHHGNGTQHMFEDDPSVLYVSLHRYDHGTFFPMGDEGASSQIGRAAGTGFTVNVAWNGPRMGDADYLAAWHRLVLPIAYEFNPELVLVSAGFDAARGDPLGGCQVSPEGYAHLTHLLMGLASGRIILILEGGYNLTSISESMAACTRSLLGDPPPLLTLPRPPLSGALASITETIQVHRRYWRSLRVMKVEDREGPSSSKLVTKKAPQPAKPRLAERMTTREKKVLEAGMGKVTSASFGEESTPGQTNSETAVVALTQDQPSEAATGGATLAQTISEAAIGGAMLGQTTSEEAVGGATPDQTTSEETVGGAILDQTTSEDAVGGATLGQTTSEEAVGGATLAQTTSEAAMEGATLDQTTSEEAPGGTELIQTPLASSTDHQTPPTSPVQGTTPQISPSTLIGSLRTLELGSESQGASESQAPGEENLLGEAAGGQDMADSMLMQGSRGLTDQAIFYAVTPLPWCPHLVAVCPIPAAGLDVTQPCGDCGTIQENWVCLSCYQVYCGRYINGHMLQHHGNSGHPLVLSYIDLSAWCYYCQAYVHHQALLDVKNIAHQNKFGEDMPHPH

[2] = Bioavailability in mouse at 10 mg/kg, iv; format: ADME, organism-based; conditions: in vivo
[3] = AUClast in dog at 0.5 mg/kg, iv; format: ADME, organism-based, Canis lupus familiaris; conditions: in vivo
[4] = Half life in mouse at 50 mg/kg, po; format: ADME, organism-based; conditions: in vivo
[5] = Cmax in dog at 5 mg/kg, po; format: ADME, organism-based, Canis lupus familiaris; conditions: in vivo
[6] = Half life in monkey at 0.5 mg/kg, iv; format: ADME, organism-based, Macaca mulatta; conditions: rhesus monkey, in vivo
[7] = Bioavailability in dog at 0.5 mg/kg, iv; format: ADME, organism-based, Canis lupus familiaris; conditions: in vivo
Rattus norvegicus = assay: Antiarthritic activity against adjuvant-induced arthritis Lewis rat model at 50 mg/kg, po measured after 8 days; format: functional, organism-based; conditions: time 8.0 day
[8] = Clearance in monkey at 0.5 mg/kg, iv; format: ADME, organism-based, Macaca mulatta; conditions: rhesus monkey, in vivo

bioavailability [2]	AUC(0-t) [3]	half-life [4]	Cmax [5]	half-life [6]	bioavailability [7]	CL [8]	SMILES	IC50 [1]	Activity (Rattus norvegicus)
–	–	–	–	–	–	–	O=C(NO)c1ccc(Cn2c3c(c4ccccc42)C(=O)CCC3)cc1	16 nM	–
19%	446 ng·h/mL	83.4 min	1030 ng/mL	18.6 min	25.1%	55.7 mL/min/kg	CC1(C)CC(=O)c2c(C(F)(F)F)nn(Cc3ccc(C(=O)NO)cc3)c2C1	–	Active
